According to patent US20240216369A1, “THE USE OF A SPLICING MODULATOR FOR A TREATMENT SLOWING PROGRESSION OF HUNTINGTON'S DISEASE” (Novartis AG, priority 2019, published 2024):

Key:
tHTT = test: Mutant and total HTT multiplex HTRF assay in Q48 HTT human embryonic stem cell line: tHTT; type: cell-based; conditions: Q48 HTT hESC, 48 hours
Summary of the method: (§1)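 Q48 HTT hESCs from HD donors were treated with compound for 48 h at 37 °C after 24 h adherence, then lysed. Lysates were read by multiplex HTRF with N-terminal donor, polyQ (MW1) and post-polyQ (MAB2166) antibodies for 4-6 h at RT. Donor/acceptor ratios give relative mHTT and tHTT; pIC50 reported.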

mHTT = test: Mutant and total HTT multiplex HTRF assay in Q48 HTT human embryonic stem cell line: mHTT; type: cell-based; conditions: Q48 HTT hESC, 48 hours
Summary of the method: as §1

Structure (SMILES)	tHTT pIC50 (tHTT)	Rating (based on mHTT potency) (mHTT)	mHTT pIC50 (mHTT)
Cc1cc(-c2ccc(-c3nnc(N(C)C4CC(C)(C)NC(C)(C)C4)s3)c(F)c2)[nH]n1 [Compound 79, 5-(2-fluoro-4-(3-methyl-1H-pyrazol-5-yl)phenyl)-N-methyl-N-(2,2,6,6-tetramethylpiperidin-4-yl)-1,3,4-thiadiazol-2-amine]	6.01	* (a pIC50 value between 5 and 6 is indicated by a single star (*))	5.9315
COc1cc(-c2cn[nH]c2)cc(F)c1-c1nnc(N(C)C2CC(C)(C)NC(C)(C)C2)s1 [Compound 80, 5-(2-fluoro-6-methoxy-4-(1H-pyrazol-4-yl)phenyl)-N-methyl-N-(2,2,6,6-tetramethylpiperidin-4-yl)-1,3,4-thiadiazol-2-amine]	6.071	** (a pIC50 value between 6 and 6.5 is indicated by two stars (**))	6.2465
CN(c1ccc(-c2ccc3nccn3c2)nn1)C1CC(C)(C)NC(C)(C)C1 [Compound 81, 6-(imidazo[1,2-a]pyridin-6-yl)-N-methyl-N-(2,2,6,6-tetramethylpiperidin-4-yl)pyridazin-3-amine]	<5		<5
Oc1cc2ccccc2cc1-c1ccc(CC2CCNCC2)nn1 [Compound 82, 3-(6-(piperidin-4-ylmethyl)pyridazin-3-yl)naphthalen-2-ol]	<5		<5
